Results on seven compounds are retold here after patent publication US10618886B1, “Compounds as neuronal histamine receptor-3 antagonists and uses thereof” (XW LABORATORIES INC., priority 2018, dated 2020).

As usually defined, the IC50 is the concentration needed to halve the response being measured.

In test [1] the target is T1, histamine H3 receptor (hH3R) (Homo sapiens (Human), UniProt Q9Y5N1). Description: [35S]-GTPγS binding assay, inverse agonist mode, HEK293/Ga15/hH3R membranes. It counts as biochemical. To be noted: no agonist, 10 points, 3-fold dilution from 1 μM. The protocol:
(§1) The histamine H3 receptors mediate the histamine signals in CNS and peripheral nervous system. Histamine H3 receptors couple directly to a Gi/Go, resulting in subsequent GTPγδ binding. Although GTPγδ binding assays are carried out using membrane preparations in the similar way as radioligand binding assays, these are functional assays and can be used to differentiate agonist, antagonist, and inverse agonist activities. Such assays are carried out using [^35S]-guanosine-5′-O-(3-thio) triphosphate which provides a radioactive ligand with high affinity for G-protein a subunits that is highly resistant to the inherent GTPase activity of a subunits, such that it remains bound for sufficient periods of time to allow counting of radioactivity. The GTPγδ binding assay was performed using HEK293/Ga15/hH3R cell line with high histamine H3 receptors expression to determine H3 receptor GTPγδ binding affinity of representative compounds.
(§2) 1. [^35S]-GTPγδ binding assay for determining antagonist and inverse agonist pharmacological parameters of histamine H3 receptor ligands:
(§3) Experimental procedure: 1) Membrane preparation for HEK293/Ga15/hH3R; 2) Standard binding assay. Briefly, for membrane […], HEK293/Ga15/hH3R cells were grown to confluence, harvested and the cell pellets were suspended in TEL buffer (50 mM Tris-HCl buffer, 1 mM EGTA, 0.1 mM PMSF). Homogenate and centrifuge at 1,000 g for 10 min. Centrifuge the supernatant at 46,000 g for 30 min. Suspend the membrane pellet in 50 mM Tris with 0.32 M sucrose, pH 7.0. Aliquot at 1 mg protein/mL. Keep frozen and store at −80° C. until use. All compounds were prepared by dissolving in DMSO to make 10 mM stock. The 10 mM stock was used as top concentration […] to carry out 10-points, 3-fold dilution scheme using DMSO in a 96-well plate to make the compound dose plate. H3R GTPγδ binding assay was performed as followings: thaw the membrane at 37° C., chill on ice, add GDP and the membrane to assay buffer (50 mM Tris-HCl, 100 mM NaCl, 5 mM MgCl2, pH 7.4, and 0.2%, BSA). Stay on ice for 20 min. […] Add 20 μL [^35S]-GTPγδ (final 200 pM) and incubate at room temperature for 60 min. For antagonist mode: Add 20 μL agonist (R-alpha-methylhistamine, final concentration 1 μM), 20 μL testing compound (final top concentration 1 μM, 3-fold dilution, 10 points), 20 μL [^35S]-GTPγδ (final 200 pM), 140 μL membrane solution (total 200 μL, GDP 10μM, membrane protein 20 μg/well) to the assay plate. Incubate at room temperature for 60 min. Filter the assay plate on GF/C (non-PEI coated) plate to stop the assay. Dry GF/C plate for 1 h. Add 50 μL scintillation fluid and count on the MicroBeta.
(§4) Data Analysis: The CPM values were calculated into % of inhibition with the following formula:
For inverse agonist mode: % of inhibition=(DMSO control CPM−Compound CPM)/(DMSO control CPM−GTP control CPM)×100.
(§5) IC50s were calculated using Prism5 with log(inhibitor) vs. response equation.
(Binding of GTPγS marks nucleotide exchange on a G protein.)

In test [2] the target is T1, histamine H3 receptor (hH3R). Description: [35S]-GTPγS binding assay, antagonist mode, HEK293/Ga15/hH3R membranes. The format is biochemical. To be noted: agonist R-alpha-methylhistamine 1 μM, 10 points, 3-fold dilution from 1 μM. The protocol: as §1, §2, §3, §4
For antagonist mode: % of inhibition=(R-alpha-methyl-histamine control CPM−Compound CPM)/(R-alpha-methyl-histamine control CPM−DMSO control CPM)×100.
as §5

T1 sequence (Q9Y5N1 whole entry): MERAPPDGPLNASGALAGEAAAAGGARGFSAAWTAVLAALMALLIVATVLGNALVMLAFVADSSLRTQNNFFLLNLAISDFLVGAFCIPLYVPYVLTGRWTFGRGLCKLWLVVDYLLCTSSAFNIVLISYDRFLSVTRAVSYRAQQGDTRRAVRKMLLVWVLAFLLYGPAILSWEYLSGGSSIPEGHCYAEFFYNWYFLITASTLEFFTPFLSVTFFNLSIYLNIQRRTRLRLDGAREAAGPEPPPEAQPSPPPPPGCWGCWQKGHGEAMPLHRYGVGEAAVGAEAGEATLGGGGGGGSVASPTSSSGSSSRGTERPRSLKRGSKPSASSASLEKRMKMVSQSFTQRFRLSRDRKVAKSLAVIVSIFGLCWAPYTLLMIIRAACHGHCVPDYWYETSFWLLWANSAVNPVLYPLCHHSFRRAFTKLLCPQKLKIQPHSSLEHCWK

`COc1cc(OCCCN2CCCC2)ccc1-n1c(C)nc2ccc(S(F)(F)(F)(F)F)cc2c1=O` [VI, 3-(2-methoxy-4-(3-(pyrrolidin-1-yl)propoxy)phenyl)-2-methyl-6-(pentafluorosulfanyl)quinazolin-4(3H)-one]: the IC50 is 5.5 nM in test [1] and 5.36 nM in test [2].

With `Cc1nc2ccc(S(F)(F)(F)(F)F)cc2c(=O)n1-c1ccc(OCCCN2CCC(C)C2)cc1` (centres unmarked) [VII, 2-methyl-3-(4-(3-(3-methylpyrrolidin-1-yl)propoxy)phenyl)-6-(pentafluorosulfanyl)quinazolin-4(3H)-one], the results for the IC50 in test [1] and in test [2] were 10.5 nM and 3.44 nM, respectively.

Consider `Cc1nc2ccc(S(F)(F)(F)(F)F)cc2c(=O)n1-c1ccc(OC2CCN(C(=O)C3CCCCC3)CC2)cc1` [XIX, 3-(4-((1-(cyclohexanecarbonyl)piperidin-4-yl)oxy)phenyl)-2-methyl-6-(pentafluorosulfanyl)quinazolin-4(3H)-one], for which the IC50 in test [1] and in test [2] was greater than 1000 nM each time.

Take `Cc1nc2ccc(S(F)(F)(F)(F)F)cc2c(=O)n1-c1ccc(OC2CCN(C3CCCC3)CC2)cc1` [XVI]: the IC50 in test [1] was 175 nM; in test [2] it was 116 nM.

As to `Cc1nc2ccc(S(F)(F)(F)(F)F)cc2c(=O)n1-c1ccc(OC2CCN(C(=O)C3CCN(C)CC3)CC2)cc1` [XX, 2-methyl-3-(4-((1-(1-methylpiperidine-4-carbonyl)piperidin-4-yl)oxy)phenyl)-6-(pentafluorosulfanyl)quinazolin-4(3H)-one], the figures for the IC50 in test [1] and in test [2] were 50.5 nM and 814 nM, respectively.

With `Cc1nc2ccc(S(F)(F)(F)(F)F)cc2c(=O)n1-c1ccc(OC2CCN(C(=O)C3CCOCC3)CC2)cc1` [XXI, 2-methyl-3-(4-((1-(tetrahydro-2H-pyran-4-carbonyl)piperidin-4-yl)oxy)phenyl)-6-(pentafluorosulfanyl)quinazolin-4(3H)-one], the IC50 in test [1] is 286 nM; in test [2], greater than 1000 nM.

As for `COc1cc(OC2CCN(C(=O)C3CCOCC3)CC2)ccc1-n1c(C)nc2ccc(S(F)(F)(F)(F)F)cc2c1=O` [XXII, 3-(2-methoxy-4-((1-(tetrahydro-2H-pyran-4-carbonyl)piperidin-4-yl)oxy)phenyl)-2-methyl-6-(pentafluorosulfanyl)quinazolin-4(3H)-one], the IC50 in test [1] is 229 nM; in test [2] it was 242 nM.
